# According to patent US20260158033A1, “VECABRUTINIB FOR THE TREATMENT OF GRAFT-VERSUS-HOST DISEASE” (Viracta Therapeutics, Inc., priority 2021, published 2026):
# What was measured:
# [1] = mouse, in vivo
# Method: (§1) A murine model of sclerodermatous cGVHD was initiated by adoptive transfer of T-cell depleted bone marrow plus whole splenocytes from B10.D2 donors into BALB/c recipients that were previously subjected to sub-lethal irradiation. Total bone marrow and irradiation only groups were included as controls. […] Body weight and clinical symptoms (appearance, activity, skin symptoms, diarrhea, conjunctivitis) were measured throughout the study. Immunophenotyping for B cells and T cells was performed on spleens collected from euthanized mice by flow cytometry at two timepoints (day 40 during treatment and on day 76 post-treatment). Levels of circulating immunoglobulins were measured by multiplex cytokine assay at both timepoints.
# (§2) On day 40 (during treatment) and day 76 (post-treatment) groups of mice were euthanized for immunophenotyping analysis utilizing a 22-color flow cytometry panel. […] Scoring between 0-2 was assigned for each of the parameters (appearance, activity, skin symptoms, diarrhea, conjunctivitis) and totaled for each mouse.
# B cells and T cells = experiment: Immunophenotyping of spleen B cells and T cells by flow cytometry in cGVHD mice; assay type: in vivo, mouse (BALB/c recipients); conditions: during treatment (day 40)
# Method: as §1, §2
# [2] = system: circulating immunoglobulins; experiment: Circulating immunoglobulins by multiplex cytokine assay in cGVHD mice; assay type: in vivo, mouse (BALB/c recipients); conditions: during and post treatment, compared to vehicle
# Method: as §1
# BTK = BTK (Homo sapiens, UniProt Q06187); conditions: reversible, non-covalent; cited from earlier work
# [3] = system: murine model of sclerodermatous cGVHD; experiment: Murine model of sclerodermatous cGVHD: clinical GVHD score and symptoms; assay type: in vivo, mouse (BALB/c recipients, B10.D2 donors)
# Method: as §1, §2
# ITK = molecular target: T1, ITK (Homo sapiens, UniProt Q08881); conditions: ITK expressed in T cells; cited from earlier work
# T1 sequence (Q08881 1-620): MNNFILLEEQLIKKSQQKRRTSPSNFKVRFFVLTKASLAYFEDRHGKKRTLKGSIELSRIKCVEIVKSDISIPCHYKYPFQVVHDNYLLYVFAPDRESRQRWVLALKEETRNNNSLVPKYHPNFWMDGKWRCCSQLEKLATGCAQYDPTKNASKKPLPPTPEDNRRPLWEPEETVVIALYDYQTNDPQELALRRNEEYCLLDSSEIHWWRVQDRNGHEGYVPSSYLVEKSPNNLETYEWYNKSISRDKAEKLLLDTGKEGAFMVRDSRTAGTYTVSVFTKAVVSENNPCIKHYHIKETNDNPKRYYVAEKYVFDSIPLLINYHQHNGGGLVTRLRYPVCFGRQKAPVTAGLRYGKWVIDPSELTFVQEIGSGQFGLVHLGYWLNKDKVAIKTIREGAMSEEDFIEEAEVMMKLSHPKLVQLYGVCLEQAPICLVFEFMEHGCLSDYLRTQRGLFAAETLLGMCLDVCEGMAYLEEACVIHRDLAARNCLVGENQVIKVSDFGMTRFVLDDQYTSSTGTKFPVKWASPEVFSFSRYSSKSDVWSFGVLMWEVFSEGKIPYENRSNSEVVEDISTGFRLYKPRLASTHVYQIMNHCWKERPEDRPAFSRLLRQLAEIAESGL
# Sequence of BTK (Q06187 whole entry, species assumed): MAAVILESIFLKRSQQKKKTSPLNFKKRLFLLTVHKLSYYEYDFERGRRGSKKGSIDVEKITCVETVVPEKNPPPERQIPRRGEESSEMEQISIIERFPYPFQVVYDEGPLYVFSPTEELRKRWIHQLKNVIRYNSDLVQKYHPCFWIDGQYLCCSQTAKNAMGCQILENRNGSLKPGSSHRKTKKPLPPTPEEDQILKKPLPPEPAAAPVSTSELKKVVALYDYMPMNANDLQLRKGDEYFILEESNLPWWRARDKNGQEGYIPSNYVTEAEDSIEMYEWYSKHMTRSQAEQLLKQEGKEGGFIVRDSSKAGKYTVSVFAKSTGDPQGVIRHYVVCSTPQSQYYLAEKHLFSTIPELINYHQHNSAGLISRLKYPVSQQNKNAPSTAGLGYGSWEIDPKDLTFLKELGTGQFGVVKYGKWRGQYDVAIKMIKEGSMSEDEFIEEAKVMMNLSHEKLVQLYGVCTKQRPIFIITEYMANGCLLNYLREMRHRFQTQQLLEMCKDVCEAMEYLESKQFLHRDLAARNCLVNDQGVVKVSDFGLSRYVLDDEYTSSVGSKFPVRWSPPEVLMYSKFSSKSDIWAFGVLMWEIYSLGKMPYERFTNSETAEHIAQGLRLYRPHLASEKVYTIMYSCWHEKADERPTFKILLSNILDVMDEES
compound,measurement,setting,value
"C=CC(=O)N1CCC[C@@H](n2nc(-c3ccc(Oc4ccccc4)cc3)c3c(N)ncnc32)C1 [Ibrutinib, reference compound]",Body weight post-treatment,[1],recovered body weight
same,Weight loss during treatment compared to vehicle,[1],slightly elevated
"NC(=O)[C@H]1CCN(c2ncnc(N)c2F)C[C@@H]1N1CCC[C@@H](Nc2cc(Cl)cc(C(F)(F)F)c2)C1=O [Vecabrutinib, (3R,3′R,4'S)-1′-(6-amino-5-fluoropyrimidin-4-yl)-3-((3-chloro-5-(trifluoromethyl)phenyl)amino)-2-oxo-[1,3′-bipiperidine]-4′-carboxamide]",Activated and proliferating CD4+ and CD8+ T cells,B cells and T cells,reduced
same,B-cell activation,B cells and T cells,reduced
same,B-cell proliferation,B cells and T cells,reduced
same,CD4+ CXCR5+PD-1+ T follicular helper cells,B cells and T cells,reduced
same,CD4+CD25+ FoxP3+ Treg number,B cells and T cells,reduced
same,Cytotoxic granzyme-B+ CD8+ T cells,B cells and T cells,reduced
same,Expression of PD-1 on Tregs,B cells and T cells,reduced
same,Expression of antigen-presentation molecules CD80 and CD86 on B cells,B cells and T cells,unchanged
same,IL-4/5 secreted by B cells,B cells and T cells,less
same,IL-10 secreted by B cells,B cells and T cells,less
same,Number of B220+CD138+ plasma cells,B cells and T cells,reduced
same,Numbers of cytokine secreting CD4+ cells,B cells and T cells,globally reduced
same,Th1/Th2 or Th17/Treg ratios,B cells and T cells,no differences
same,Total B cell numbers,B cells and T cells,retained
same,Total CD3+ T cells,B cells and T cells,reduced
same,Body weight post-treatment,[1],recovered body weight
same,Weight loss during treatment compared to vehicle,[1],slightly elevated
same,Circulating levels of IgA,[2],reduced
same,BTK inhibition,BTK,potent
same,Avg. Score Day 58,"[3]; average clinical GVHD score, 0-2 per parameter (appearance, activity, skin symptoms, diarrhea, conjunctivitis) totaled, Day 58, vecabrutinib 50 mg/kg once daily oral gavage, ibrutinib 30 mg/kg in drinking water, day 27 to 45",2.50
same,Avg. Score Day 66,"[3]; average clinical GVHD score, 0-2 per parameter totaled, Day 66, vecabrutinib 50 mg/kg once daily oral gavage, ibrutinib 30 mg/kg in drinking water, day 27 to 45",1.30
same,Avg. Score Day 71,"[3]; average clinical GVHD score, 0-2 per parameter totaled, Day 71, vecabrutinib 50 mg/kg once daily oral gavage, ibrutinib 30 mg/kg in drinking water, day 27 to 45",2.90
same,"Clinical symptoms (appearance, activity, skin irritation, redness, alopecia and diarrhea)","[3]; treated groups, vecabrutinib 50 mg/kg oral, ibrutinib 30 mg/kg drinking water",significantly reduced
same,Clinical score overall compared to ibrutinib,"[3]; vecabrutinib-treated group vs ibrutinib, small sample size",trend toward a more favorable clinical score overall
same,Activity against ITK,ITK,demonstrates activity
